Source: patent publication US4576956A, “Iodo propargylaminoisoxazoles as fungicides” (Shionogi & Co., Ltd., priority 1982, dated 1986)
Values after ≈ are worked out from the molar mass of the structure shown.

Legend:
Trichophyton asteroides [1] = assay: Test A-2 Anti-fungal Activity (MCC); conditions: 168 h, read-out: MCC (Minimal Cidal Concentration)
Description: (§12) Some MCC (Minimal Cidal Concentration) values (Table 1) were obtained against Candida albicans and Trichophyton asteroides by the following method. After the MIC value was obtained by the microwell method, a loopful amount was picked up from the medium in which no growth of the fungus was observed, inoculated into a Subrouraud's glucose agar medium and incubated at 28° C. for 2 days in the case of C. albicans and for 7 days in the case of T. asteroides.

Candida albicans M-9 = assay: Test A-1 Anti-fungal Activity (MIC), microwell dilution; assay type: cell-based; conditions: M9, C. albicans M-9, in vitro, 1×10^5 cells/ml
Description: (§1) Test A-1 Anti-fungal Activity (MIC)
(§2) The concentration of the test cells was 1×10^5 cells/ml and the activity was measured by a microwell dilution method. The structure of the test compounds is referred to in the Examples.

Aspergillus fumigatus = assay: as above; assay type: cell-based; conditions: in vitro, 1×10^5 cells/ml
Description: as §1, §2

Trichophyton asteroides [2] = assay: as above; assay type: cell-based; conditions: T. asteroides, in vitro, 1×10^5 cells/ml
Description: as §1
The following results (Table 1) were obtained in an anti-fungal activity test in vitro against Aspergillus fumigatus, Candida albicans M-9 and Trichophyton asteroides. The concentration of the test cells was 1×10^5 cells/ml and the activity was measured by a microwell dilution method. The structure of the test compounds is referred to in the Examples.

Sphaerotheca fuliginea = assay: Test B-5 Control Test to Powdery Mildew of Cucumber; assay type: in vivo; conditions: 500 ppm, 2 weeks
Description: Test B-5 Control Test to Powdery Mildew of Cucumber
Each cucumber seedling was sprayed with 2.5 ml of a test solution. The seedlings were kept at 25°-26° C. for 1 day after the spraying and then sprayed with a conidium (1×10^5 conidia/ml) of Sphaerotheca fuliginea in a 100 ppm spreader solution (containing 20% polyoxyethylene glycol alkyl phenol ether and 12% lignin sulfonate) at a rate of 25 ml/20 cups.
The seedlings were kept in a greenhouse (25° C.) for 2 weeks and then observed.
Standard of Evaluation [formula]
(§3) The percent disease control was calculated in the same manner as in Test B-1.

Candida albicans = assay: Test A-2 Anti-fungal Activity (MCC); conditions: 48 h, read-out: MCC (Minimal Cidal Concentration)
Description: as §12

Pythium aphanidermatum = assay: Test B-6 Control Test to Damping-off of Cucumber; assay type: in vivo; conditions: P*, 500 ppm, soil drench, 1 week
Description: (§4) Test B-6 Control Test to Damping-off of Cucumber
(§5) Twenty cucumber seeds were sown into sterilized soil (150 ml) in a pot of 9 cm in diameter. The fungi, Phythium aphanidermatum, Fusarium oxysporum and Rhizoctonia solani were cultured on a wheat bran medium for 5 days and an additional 2 days thereafter were mixed with sterilized soil. The surface of the sown spots was covered with the above culture medium. A test solution (30 ml) at a prescribed concentration was poured into each pot. The pots were kept in a greenhouse (28° C.) for 1 week in the case of Pythium and Rhizoctonia and for 2 weeks in the case of Fusarium.
(§6) The disease degree was observed and percent disease degree was calculated by the following formula: […]
(§7) (1) No germination . . . x 4
(§8) (2) Germed but withered . . . x 3
(§9) (3) Disordered in 1/3 or more . . . x 2
(§10) (4) Disordered in less than 1/3 . . . x 1
(§11) (5) Not damaged . . . x 0 [formula]
as §3

Rhizoctonia solani = assay: Test B-6 Control Test to Damping-off of Cucumber; assay type: in vivo; conditions: R*, 500 ppm, soil drench, 1 week
Description: as §4, §5, §6, §7, §8, §9, §10, §11, §3

Fusarium oxysporum = assay: Test B-6 Control Test to Damping-off of Cucumber; assay type: in vivo; conditions: F*, 500 ppm, soil drench, 2 weeks
Description: as §4, §5, §6, §7, §8, §9, §10, §11, §3

Botrytis cinerea = assay: Test B-1 Control Test of Botrytis Rot (Gray Mold) of Cucumber; assay type: in vivo; conditions: 500 ppm, 3 days
Description: Test B-1 Control Test of Botrytis Rot (Gray Mold) of Cucumber Seedlings of Cucumber (Cultivar: Matsukaze) were planted and grown in soil in vinyl-chloride cups of 9 cm in diameter in a greenhouse. […] The treated cucumbers were kept for 3 days in a greenhouse (20° C.) and then disease degrees were counted. Standard of Evaluation […] (2) A slight soaked lesion on the reverse of the test leaf . . . × 5 (3) A slight fade of the leaf . . . × 10 (4) The inoculated part was faded and the fading expanded erosively . . . × 20 [formula]

Sclerotinia sclerotiorum = assay: Test B-2 Control Test to Sclerotinia Rot of Cucumber; assay type: in vivo; conditions: 48 h, 2 days, read-out: Percent Disease Control
Description: Test B-2 Control Test to Sclerotinia Rot of Cucumber
Cucumber seedlings were sprayed with 2.5 ml of a test solution in the same manner as in Test B-1. Afterthe spraying, the seedlings were kept at 25°-26° C. for a day and three disks of 4 mm in diameter containing mycelia of Sclerotinia sclerotiorum were put on a primary leaf and then 10 μl of PD broth were dropped on the disks. The treated seedlings were kept ina greenhouse (20° C.) for 2 days and then the diameters of the disease spots were measured by a pair of slide callipers. [formula]

Pyricularia oryzae = assay type: in vivo; conditions: 500 ppm; rice plant blast, 24 hours + 7 days
[3] = tested on: Pseudoperonospora cubensis; assay: Test B-3 Control Test to Downy Mildew of Cucumber; assay type: in vivo; conditions: 500 ppm, 7 days
Description: Test B-3 Control Test to Downy Mildew of Cucumber
Each cucumber seedling was sprayed with 2.5 ml of a test solution in the same manner as in Test B-1. After the spraying, the seedlings were kept at 25°-26° C. for a day and a zoosporangium suspension or Pseudoperonospora cubensis was inoculated at a rate of five spots per leaf on a primary leaf. The treated seedlings were kept in a greenhouse for 7 days and then observed.
(2) Slight disease at the inoculation spot . . . X5
(3) A disease spot in the same size as the inoculation spot (without spreading) . . . x10
(4) A disease spot larger than the inoculation spot . . . x20
Disease degree and percent disease control were calculated in the same manner as in Test B-1.

Mycoplasma gallisepticum = assay: minimum inhibition concentration; assay type: cell-based; conditions: Mycoplasmoides gallisepticum, one range for the listed compounds
[4] = tested on: Colletotrichum lagenarium; assay: Test B-4 Control Test to Anthracnose of Cucumber; assay type: in vivo; conditions: 500 ppm, 3 + 3 days
Description: Test B-4 Control Test to Anthracnose of Cucumber Each cucumber seedling was sprayed with 2.5 ml of a test solution in the same manner as in Test B-1. After the spraying, the seedlings were kept at 25°-26° C. for a day and were inoculated with five filter-paper disks of 6 mm in diameter saturated with a conidium suspension of Colletotrichum lagenarium at a concentration of 1×10^6 conidia/ml. The treated seedlings were kept in a greenhouse (25° C.) for 3 days and further kept at below 25° C. for 3 days. Standard of Evaluation The same as noted in Test B-3.

Mycoplasma hyopneumonia = assay: growth inhibition of a swine enzootic pneumonia-causative bacteria; assay type: cell-based; conditions: one range for the listed compounds, read-out: concentration inhibiting the growth

| SMILES | MIC (Candida albicans M-9) | MIC (Aspergillus fumigatus) | MIC (Trichophyton asteroides [2]) | Percent Disease Control (Botrytis cinerea) | other results |
| --- | --- | --- | --- | --- | --- |
| Cc1noc(N(C)CC#CI)c1Cl [Comp. 24] | 0.2 µg/mL (≈ 0.644 µM) | 0.8 µg/mL (≈ 2.58 µM) | 0.4 µg/mL (≈ 1.29 µM) | 100% | MFC (Trichophyton asteroides [1]): 3.1 µg/mL (≈ 9.98 µM); Percent Disease Control (Sphaerotheca fuliginea): 100%; MFC (Candida albicans): 12.5 µg/mL (≈ 40.3 µM); Percent Disease Control (Pythium aphanidermatum): 100%; Percent Disease Control (Rhizoctonia solani): 100%; Percent Disease Control (Fusarium oxysporum): 93%; pest or weed control at 500 ppm (Sclerotinia sclerotiorum): 100% |
| CN(CC#CI)c1onc(-c2ccccc2)c1Cl [Comp. 27] |  |  |  |  | Percent Disease Control (Pyricularia oryzae): 100% |
| CN(CC#CI)c1cc(C2CC2)no1 [Comp. 8] | 0.8 µg/mL (≈ 2.65 µM) | 1.6 µg/mL (≈ 5.3 µM) | 3.1 µg/mL (≈ 10.3 µM) |  |  |
| Cc1onc(N(C)CC#CI)c1Cl [compound 33, 3-(N-methyl-N-3-iodo-2-propynyl)amino-4-chloro-5-methylisoxazole] | 1.6 µg/mL (≈ 5.15 µM) | 3.1 µg/mL (≈ 9.98 µM) | 0.8 µg/mL (≈ 2.58 µM) |  | Percent Disease Control [3]: 100%; pest or weed control at 500 ppm (Sclerotinia sclerotiorum): 100% |
| CCN(CC#CI)c1cc(C)no1 [Comp. 4] | 0.8 µg/mL (≈ 2.76 µM) | 1.6 µg/mL (≈ 5.52 µM) | 1.6 µg/mL (≈ 5.52 µM) |  | MFC (Trichophyton asteroides [1]): 3.1 µg/mL (≈ 10.7 µM); MFC (Candida albicans): 25 µg/mL (≈ 86.2 µM) |
| CCc1cc(N(C)CC#CI)on1 [Comp. 5] | 0.8 µg/mL (≈ 2.76 µM) | 1.6 µg/mL (≈ 5.52 µM) | 1.6 µg/mL (≈ 5.52 µM) | 100% | Percent Disease Control [3]: 95.0%; MIC (Mycoplasma gallisepticum): 6.25 to 12.5 µg/mL (≈ 21.5 to 43.1 µM); pest or weed control at 500 ppm (Sclerotinia sclerotiorum): 100% |
| CC(C)c1noc(N(C)CC#CI)c1Cl [Comp. 26] | 6.3 µg/mL (≈ 18.6 µM) | 50 µg/mL (≈ 148 µM) | 1.6 µg/mL (≈ 4.73 µM) |  | Percent Disease Control (Sphaerotheca fuliginea): 100%; Percent Disease Control [4]: 100%; Percent Disease Control [3]: 100% |
| Clc1c(-c2ccccc2)noc1NCC#CI [Comp. 2, 3-phenyl-4-chloro-5-(3-iodo-2-propynyl)aminoisoxazole] | 0.1 µg/mL (≈ 0.279 µM) | 6.2 µg/mL (≈ 17.3 µM) | 0.4 µg/mL (≈ 1.12 µM) |  |  |
| CN(CC#CI)c1cc(-c2ccco2)no1 [Comp. 10] | 0.8 µg/mL (≈ 2.44 µM) | 1.6 µg/mL (≈ 4.88 µM) | 0.8 µg/mL (≈ 2.44 µM) |  |  |
| CN(CC#CI)c1cc(C2CCCCC2)no1 [Comp. 9] |  |  |  |  | Percent Disease Control [3]: 100%; MIC (Mycoplasma hyopneumonia): 3.13 to 12.5 µg/mL (≈ 9.09 to 36.3 µM) |
| Clc1ccccc1C(c1ccccc1)(c1ccccc1)n1ccnc1 [Ref. Comp., Clotrimazole, reference compound] | 6.3 µg/mL (≈ 18.3 µM) | 12.5 µg/mL (≈ 36.2 µM) | 0.2 µg/mL (≈ 0.58 µM) |  | MFC (Trichophyton asteroides [1]): 6.3 µg/mL (≈ 18.3 µM); MFC (Candida albicans): > 100 µg/mL |
| CCc1noc(N(C)CC#CI)c1Cl [Comp. 1, 3-ethyl-4-chloro-5-(N-methyl-N-3-iodo-2-propynyl)-aminoisoxazole] | 3.1 µg/mL (≈ 9.55 µM) | 6.3 µg/mL (≈ 19.4 µM) | 0.8 µg/mL (≈ 2.46 µM) | 100% | Percent Disease Control (Sphaerotheca fuliginea): 100%; Percent Disease Control [4]: 100%; Percent Disease Control [3]: 100%; pest or weed control at 500 ppm (Sclerotinia sclerotiorum): 100% |
| Cc1noc(C)c1NCC#CI [compound 38, 3,5-dimethyl-4-(3-iodo-2-propynylamino)isoxazole] | 0.8 µg/mL (≈ 2.9 µM) | 3.1 µg/mL (≈ 11.2 µM) | 0.8 µg/mL (≈ 2.9 µM) |  |  |
| CN(CC#CI)c1onc2c1CCCC2 [Comp. 15] |  |  |  | 100% | MIC (Mycoplasma hyopneumonia): 3.13 to 12.5 µg/mL (≈ 9.9 to 39.5 µM) |
| Cc1c(N(C)CC#CI)noc1-c1ccccc1 [compound 36] |  |  |  |  | Percent Disease Control (Pyricularia oryzae): 90% |
| CN(CC#CI)c1cc(-c2ccccc2)no1 [Comp. 13] | 3.1 µg/mL (≈ 9.17 µM) | 3.1 µg/mL (≈ 9.17 µM) | 3.1 µg/mL (≈ 9.17 µM) |  | Percent Disease Control (Pyricularia oryzae): 99%; MIC (Mycoplasma hyopneumonia): 3.13 to 12.5 µg/mL (≈ 9.26 to 37 µM) |
| CN(CC#CI)c1cc(-c2cccs2)no1 [Comp. 11] | 0.8 µg/mL (≈ 2.32 µM) | 3.1 µg/mL (≈ 9.01 µM) | 1.6 µg/mL (≈ 4.65 µM) | 100% | MFC (Trichophyton asteroides [1]): 1.6 µg/mL (≈ 4.65 µM); MFC (Candida albicans): 12.5 µg/mL (≈ 36.3 µM) |
| Cc1onc(NCC#CI)c1Cl [compound 34, 3-(3-iodo-2-propynyl)-amino-4-chloro-5-methylisoxazole] |  |  |  | 100% | Percent Disease Control [4]: 100%; Percent Disease Control [3]: 100%; MIC (Mycoplasma hyopneumonia): 3.13 to 12.5 µg/mL (≈ 10.6 to 42.2 µM) |
| Cc1cc(N(C)CC#CI)on1 [Comp. 3] | 0.4 µg/mL (≈ 1.45 µM) | 0.8 µg/mL (≈ 2.9 µM) | 1.6 µg/mL (≈ 5.8 µM) |  |  |
| CC(C)c1cc(N(C)CC#CI)on1 [Comp. 6] | 0.8 µg/mL (≈ 2.63 µM) | 1.6 µg/mL (≈ 5.26 µM) | 1.6 µg/mL (≈ 5.26 µM) |  | MFC (Trichophyton asteroides [1]): 3.1 µg/mL (≈ 10.2 µM); Percent Disease Control [4]: 100%; MFC (Candida albicans): 25 µg/mL (≈ 82.2 µM); pest or weed control at 500 ppm (Sclerotinia sclerotiorum): 100% |
| Cc1cc(N(C)CC#CI)no1 [compound 32, 3-(N-methyl-N-3-iodo-2-propynyl)amino-5-methylisoxazole] | 1.6 µg/mL (≈ 5.8 µM) | 1.6 µg/mL (≈ 5.8 µM) | 3.1 µg/mL (≈ 11.2 µM) | 100% | Percent Disease Control (Pyricularia oryzae): 98%; Percent Disease Control (Sphaerotheca fuliginea): 100%; Percent Disease Control (Pythium aphanidermatum): 100%; Percent Disease Control (Rhizoctonia solani): 100%; Percent Disease Control (Fusarium oxysporum): 50%; pest or weed control at 500 ppm (Sclerotinia sclerotiorum): 100% |
| CCN(CC#CI)c1onc(C)c1C [Comp. 21] | 1.6 µg/mL (≈ 5.26 µM) | 1.6 µg/mL (≈ 5.26 µM) | 1.6 µg/mL (≈ 5.26 µM) |  |  |
